Data taken from the kinase profiling compilation of Christmann-Franck et al. (2016).

Assays:
Experiment in all cases: radiometric filter-binding kinase assay, Kinase HotSpot
Conditions in all cases: compound 0.5 µM; ATP 10 µM
ABL2 (human) = ABL2 (human) (UniProt P42684)
ACVRL1 (human) = ACVRL1 (human) (UniProt P37023)
CAMK1D (human) = CAMK1D (human) (UniProt Q8IU85)
CAMK4 (human) = CAMK4 (human) (UniProt Q16566)
CDK1 CCNB1 (human) = CDK1 CCNB1 (human) (UniProt P06493+P14635)
CDK9 CCNT1 (human) = CDK9 CCNT1 (human) (UniProt P50750+O60563)
CHEK1 (human) = CHEK1 (human) (UniProt O14757)
CHEK2 (human) = CHEK2 (human) (UniProt O96017)
Sequence of CHEK2 (human) (O96017 whole entry, looked up): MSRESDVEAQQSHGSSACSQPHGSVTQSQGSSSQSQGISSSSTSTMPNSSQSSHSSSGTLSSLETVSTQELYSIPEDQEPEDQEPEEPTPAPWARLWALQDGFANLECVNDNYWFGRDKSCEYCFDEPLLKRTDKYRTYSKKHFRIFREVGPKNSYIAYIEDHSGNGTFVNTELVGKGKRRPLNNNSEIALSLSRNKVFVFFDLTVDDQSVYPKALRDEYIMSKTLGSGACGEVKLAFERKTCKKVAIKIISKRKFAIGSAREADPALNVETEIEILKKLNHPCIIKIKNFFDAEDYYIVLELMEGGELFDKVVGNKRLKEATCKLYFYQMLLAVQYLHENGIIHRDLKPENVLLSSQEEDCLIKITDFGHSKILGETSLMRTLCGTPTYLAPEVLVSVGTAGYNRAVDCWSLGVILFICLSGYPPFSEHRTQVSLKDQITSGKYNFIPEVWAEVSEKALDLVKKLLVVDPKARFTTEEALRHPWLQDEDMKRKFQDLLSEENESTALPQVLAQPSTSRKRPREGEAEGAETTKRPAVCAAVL

CSNK2A2 (human) = CSNK2A2 (human) (UniProt P19784)
DAPK3 (human) = DAPK3 (human) (UniProt O43293)
DYRK1A (human) = DYRK1A (human) (UniProt Q13627)
DYRK1B (human) = DYRK1B (human) (UniProt Q9Y463)
Sequence of DYRK1B (human) (Q9Y463 whole entry, looked up): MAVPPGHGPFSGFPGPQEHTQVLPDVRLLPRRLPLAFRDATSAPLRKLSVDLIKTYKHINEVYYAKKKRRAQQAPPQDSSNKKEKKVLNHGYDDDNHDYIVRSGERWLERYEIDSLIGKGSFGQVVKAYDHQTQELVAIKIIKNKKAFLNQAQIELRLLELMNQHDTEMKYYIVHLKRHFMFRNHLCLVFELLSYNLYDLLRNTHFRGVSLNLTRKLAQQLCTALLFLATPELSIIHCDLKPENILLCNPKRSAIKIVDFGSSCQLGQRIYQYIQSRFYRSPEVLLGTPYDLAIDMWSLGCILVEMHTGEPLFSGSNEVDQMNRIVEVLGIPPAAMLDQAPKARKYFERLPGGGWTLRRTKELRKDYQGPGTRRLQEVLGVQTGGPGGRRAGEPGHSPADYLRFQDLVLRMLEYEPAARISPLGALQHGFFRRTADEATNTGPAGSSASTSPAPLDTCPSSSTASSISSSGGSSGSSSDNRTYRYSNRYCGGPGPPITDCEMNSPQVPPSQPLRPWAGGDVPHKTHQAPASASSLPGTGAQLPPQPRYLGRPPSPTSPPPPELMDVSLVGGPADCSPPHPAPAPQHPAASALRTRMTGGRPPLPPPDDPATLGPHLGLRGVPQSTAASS

DYRK4 (human) = DYRK4 (human) (UniProt Q9NR20)
Sequence of DYRK4 (human) (Q9NR20 whole entry, looked up): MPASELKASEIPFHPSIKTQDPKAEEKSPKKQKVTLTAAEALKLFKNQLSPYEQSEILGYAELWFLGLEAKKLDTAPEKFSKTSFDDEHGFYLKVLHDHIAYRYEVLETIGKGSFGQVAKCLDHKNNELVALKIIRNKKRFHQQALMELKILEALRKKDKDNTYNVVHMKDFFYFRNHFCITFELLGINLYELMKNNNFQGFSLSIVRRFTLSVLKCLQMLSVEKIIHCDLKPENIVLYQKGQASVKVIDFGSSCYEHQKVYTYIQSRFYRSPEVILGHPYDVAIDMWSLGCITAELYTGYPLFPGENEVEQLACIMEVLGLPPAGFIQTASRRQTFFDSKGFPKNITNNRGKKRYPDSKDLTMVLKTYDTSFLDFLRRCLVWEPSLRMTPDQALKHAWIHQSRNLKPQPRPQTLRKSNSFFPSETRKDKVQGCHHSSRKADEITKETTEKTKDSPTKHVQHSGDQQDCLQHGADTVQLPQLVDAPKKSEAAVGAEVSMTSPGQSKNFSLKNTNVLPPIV

FGR (human) = FGR (human) (UniProt P09769)
FRK (human) = FRK (human) (UniProt P42685)
Sequence of FRK (human) (P42685 whole entry, looked up): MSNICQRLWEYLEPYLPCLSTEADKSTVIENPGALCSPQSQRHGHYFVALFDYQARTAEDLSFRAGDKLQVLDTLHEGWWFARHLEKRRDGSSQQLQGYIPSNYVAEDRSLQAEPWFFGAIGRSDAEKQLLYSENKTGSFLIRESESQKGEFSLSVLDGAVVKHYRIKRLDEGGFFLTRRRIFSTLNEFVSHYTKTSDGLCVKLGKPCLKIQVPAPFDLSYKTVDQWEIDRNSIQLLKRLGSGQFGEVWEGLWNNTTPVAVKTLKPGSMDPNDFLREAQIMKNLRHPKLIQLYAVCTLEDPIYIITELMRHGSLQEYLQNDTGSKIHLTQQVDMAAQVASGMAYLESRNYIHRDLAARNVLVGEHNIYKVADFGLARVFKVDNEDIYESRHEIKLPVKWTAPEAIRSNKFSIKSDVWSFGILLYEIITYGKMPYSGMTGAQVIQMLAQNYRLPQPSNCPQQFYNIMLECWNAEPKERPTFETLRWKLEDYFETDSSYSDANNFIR

HCK (human) = HCK (human) (UniProt P08631)
JAK3 JH1 JH2 (human) = JAK3 JH1 JH2 (human) (UniProt P52333)
KDR (human) = KDR (human) (UniProt P35968)
LRRK2 (human) = LRRK2 (human) (UniProt Q5S007)
MAP2K2 (human) = MAP2K2 (human) (UniProt P36507)
MAP3K11 (human) = MAP3K11 (human) (UniProt Q16584)
MAP3K3 (human) = MAP3K3 (human) (UniProt Q99759)
MAP4K2 (human) = MAP4K2 (human) (UniProt Q12851)
MARK1 (human) = MARK1 (human) (UniProt Q9P0L2)
MARK2 (human) = MARK2 (human) (UniProt Q7KZI7)
MINK1 (human) = MINK1 (human) (UniProt Q8N4C8)
NUAK1 (human) = NUAK1 (human) (UniProt O60285)
OXSR1 (human) = OXSR1 (human) (UniProt O95747)
PAK3 (human) = PAK3 (human) (UniProt O75914)
Sequence of PAK3 (human) (O75914 whole entry, looked up): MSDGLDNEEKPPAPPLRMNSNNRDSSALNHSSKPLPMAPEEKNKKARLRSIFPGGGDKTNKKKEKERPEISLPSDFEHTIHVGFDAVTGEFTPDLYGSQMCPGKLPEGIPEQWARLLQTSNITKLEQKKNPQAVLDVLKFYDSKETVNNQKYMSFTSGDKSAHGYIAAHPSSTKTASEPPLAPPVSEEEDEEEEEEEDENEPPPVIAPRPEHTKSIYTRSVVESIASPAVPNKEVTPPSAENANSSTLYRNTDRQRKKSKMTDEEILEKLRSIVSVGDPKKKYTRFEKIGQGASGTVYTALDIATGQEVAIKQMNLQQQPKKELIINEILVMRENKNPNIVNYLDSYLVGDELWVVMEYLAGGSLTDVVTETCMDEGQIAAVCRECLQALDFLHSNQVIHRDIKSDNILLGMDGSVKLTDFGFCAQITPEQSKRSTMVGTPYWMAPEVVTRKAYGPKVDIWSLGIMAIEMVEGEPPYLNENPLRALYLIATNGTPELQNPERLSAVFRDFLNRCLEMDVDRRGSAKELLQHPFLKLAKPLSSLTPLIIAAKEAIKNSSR

PAK4 (human) = PAK4 (human) (UniProt O96013)
Sequence of PAK4 (human) (O96013 whole entry, looked up): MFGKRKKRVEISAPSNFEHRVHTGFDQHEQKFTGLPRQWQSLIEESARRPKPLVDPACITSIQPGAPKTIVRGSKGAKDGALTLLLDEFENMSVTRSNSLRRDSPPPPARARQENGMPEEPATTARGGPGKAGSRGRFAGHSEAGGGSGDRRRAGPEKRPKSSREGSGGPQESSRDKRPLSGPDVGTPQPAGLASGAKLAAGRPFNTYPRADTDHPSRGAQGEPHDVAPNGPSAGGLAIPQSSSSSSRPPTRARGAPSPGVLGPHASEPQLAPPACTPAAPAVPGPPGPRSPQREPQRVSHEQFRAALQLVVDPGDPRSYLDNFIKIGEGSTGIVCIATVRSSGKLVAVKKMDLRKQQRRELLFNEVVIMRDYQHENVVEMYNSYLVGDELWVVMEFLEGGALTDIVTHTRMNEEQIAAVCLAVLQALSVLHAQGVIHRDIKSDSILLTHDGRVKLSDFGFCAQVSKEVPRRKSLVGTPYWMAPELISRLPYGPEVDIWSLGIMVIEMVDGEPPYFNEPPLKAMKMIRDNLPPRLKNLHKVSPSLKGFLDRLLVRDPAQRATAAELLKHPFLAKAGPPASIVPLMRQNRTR

PDGFRB (human) = PDGFRB (human) (UniProt P09619)
PDPK1 (human) = PDPK1 (human) (UniProt O15530)
PHKG2 (human) = PHKG2 (human) (UniProt P15735)
PKN2 (human) = PKN2 (human) (UniProt Q16513)
PRKCA (human) = PRKCA (human) (UniProt P17252)
PRKCI (human) = PRKCI (human) (UniProt P41743)
PRKCZ (human) = PRKCZ (human) (UniProt Q05513)
PTK6 (human) = PTK6 (human) (UniProt Q13882)
STK11 (human) = STK11 (human) (UniProt Q15831)
Sequence of STK11 (human) (Q15831 whole entry, looked up): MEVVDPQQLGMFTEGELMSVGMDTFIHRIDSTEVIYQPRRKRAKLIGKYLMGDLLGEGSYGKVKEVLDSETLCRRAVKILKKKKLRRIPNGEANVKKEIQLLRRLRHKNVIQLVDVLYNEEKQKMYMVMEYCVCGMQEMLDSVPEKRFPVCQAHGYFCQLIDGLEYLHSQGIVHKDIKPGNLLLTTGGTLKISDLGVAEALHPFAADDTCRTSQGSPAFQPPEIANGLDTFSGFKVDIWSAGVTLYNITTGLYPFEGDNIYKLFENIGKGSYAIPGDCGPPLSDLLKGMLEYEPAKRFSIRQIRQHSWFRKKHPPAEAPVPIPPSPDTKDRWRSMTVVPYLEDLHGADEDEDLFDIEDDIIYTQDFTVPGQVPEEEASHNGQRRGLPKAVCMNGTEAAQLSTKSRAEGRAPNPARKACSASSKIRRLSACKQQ

TEK (human) = TEK (human) (UniProt Q02763)
TTK (human) = TTK (human) (UniProt P33981)
Sequence of TTK (human) (P33981 whole entry, looked up): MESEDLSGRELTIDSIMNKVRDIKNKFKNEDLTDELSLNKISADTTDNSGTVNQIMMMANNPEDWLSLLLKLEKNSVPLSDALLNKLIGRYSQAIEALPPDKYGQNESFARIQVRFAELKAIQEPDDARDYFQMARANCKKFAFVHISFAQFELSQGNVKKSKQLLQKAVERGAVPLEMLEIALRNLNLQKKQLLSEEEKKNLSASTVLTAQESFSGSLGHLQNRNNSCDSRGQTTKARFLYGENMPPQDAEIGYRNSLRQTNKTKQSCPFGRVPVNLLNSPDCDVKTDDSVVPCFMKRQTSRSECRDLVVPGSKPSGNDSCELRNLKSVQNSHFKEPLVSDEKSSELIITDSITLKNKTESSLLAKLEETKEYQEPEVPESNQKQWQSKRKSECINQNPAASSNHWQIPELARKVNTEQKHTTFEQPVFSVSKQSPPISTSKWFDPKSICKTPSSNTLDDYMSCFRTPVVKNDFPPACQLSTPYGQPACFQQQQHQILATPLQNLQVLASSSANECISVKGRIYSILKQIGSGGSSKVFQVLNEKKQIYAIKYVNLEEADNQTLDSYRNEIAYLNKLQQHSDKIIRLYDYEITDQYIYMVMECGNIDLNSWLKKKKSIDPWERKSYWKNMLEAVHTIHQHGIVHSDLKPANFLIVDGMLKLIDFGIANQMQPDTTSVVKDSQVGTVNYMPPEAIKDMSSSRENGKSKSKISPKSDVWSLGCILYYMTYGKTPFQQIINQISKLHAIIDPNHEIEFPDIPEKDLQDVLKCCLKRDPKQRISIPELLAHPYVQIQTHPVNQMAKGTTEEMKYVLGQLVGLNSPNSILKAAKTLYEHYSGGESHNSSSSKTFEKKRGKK

VRK1 (human) = VRK1 (human) (UniProt Q99986)

Sequence of CAMK1D (human) (Q8IU85 whole entry, looked up): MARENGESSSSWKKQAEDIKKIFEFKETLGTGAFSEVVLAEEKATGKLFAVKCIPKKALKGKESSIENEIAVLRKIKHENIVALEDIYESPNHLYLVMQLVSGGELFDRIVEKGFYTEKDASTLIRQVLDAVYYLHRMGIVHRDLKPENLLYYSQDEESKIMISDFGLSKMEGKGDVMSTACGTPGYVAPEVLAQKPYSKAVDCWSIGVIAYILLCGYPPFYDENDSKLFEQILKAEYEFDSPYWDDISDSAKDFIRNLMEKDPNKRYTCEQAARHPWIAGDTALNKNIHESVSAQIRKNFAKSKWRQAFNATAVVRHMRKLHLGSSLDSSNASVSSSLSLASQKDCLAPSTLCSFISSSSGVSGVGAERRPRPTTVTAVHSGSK

COc1cc2ncc(-c3ccccc3)nc2cc1OC
residual activity (ABL2 (human)): 94%
residual activity (ACVRL1 (human)): 95.8%
residual activity (CAMK1D (human)): 96.6%
residual activity (CAMK4 (human)): 95.2%
residual activity (CDK1 CCNB1 (human)): 105%
residual activity (CDK9 CCNT1 (human)): 83.2%
residual activity (CHEK1 (human)): 94.7%
residual activity (CHEK2 (human)): 94.2%
residual activity (CSNK2A2 (human)): 98.3%
residual activity (DAPK3 (human)): 84.7%
residual activity (DYRK1A (human)): 97.2%
residual activity (DYRK1B (human)): 110%
residual activity (DYRK4 (human)): 112%
residual activity (FGR (human)): 85.4%
residual activity (FRK (human)): 99.3%
residual activity (HCK (human)): 96.9%
residual activity (JAK3 JH1 JH2 (human)): 90.3%
residual activity (KDR (human)): 85.4%
residual activity (LRRK2 (human)): 84.9%
residual activity (MAP2K2 (human)): 102%
residual activity (MAP3K11 (human)): 86.8%
residual activity (MAP3K3 (human)): 90.3%
residual activity (MAP4K2 (human)): 99.2%
residual activity (MARK1 (human)): 92.6%
residual activity (MARK2 (human)): 112%
residual activity (MINK1 (human)): 93.5%
residual activity (NUAK1 (human)): 85.6%
residual activity (OXSR1 (human)): 100%
residual activity (PAK3 (human)): 94.7%
residual activity (PAK4 (human)): 75.9%
residual activity (PDGFRB (human)): 87.5%
residual activity (PDPK1 (human)): 92.6%
residual activity (PHKG2 (human)): 97.1%
residual activity (PKN2 (human)): 88.3%
residual activity (PRKCA (human)): 103%
residual activity (PRKCI (human)): 82.1%
residual activity (PRKCZ (human)): 96.3%
residual activity (PTK6 (human)): 80.8%
residual activity (STK11 (human)): 86.8%
residual activity (TEK (human)): 85.7%
residual activity (TTK (human)): 125%
residual activity (VRK1 (human)): 106%
